According to ChEMBL document CHEMBL3097994, “Simplified captopril analogues as NDM-1 inhibitors” (Bioorg Med Chem Lett, 2014):
Activity calls are given as the source filed them. The calls are words filed in the database; no cut-off is given here.

Experiment: Inhibition of NDM-1 (unknown origin) using imipenem as substrate at 1 mM by spectrophotometric analysis

inhibition	Compound
inactive	CNc1ccccc1NC(=O)C(C)CS (stereo not drawn)
inactive	CC(CS)C(=O)N1CCOCC1 (stereo not drawn)
inactive	COC(=O)C(C)CS (stereo not drawn)

Experiment: Inhibition of NDM-1 (unknown origin)

IC50 [µM]	Compound
39	C[C@H](CS)C(=O)N1CCC[C@H]1C(=O)O [CAPTOPRIL]

Experiment: Inhibition of NDM-1 (unknown origin) using imipenem as substrate by spectrophotometric analysis

IC50 [µM]	Compound
15	CC(CO)CS (stereo not drawn)
20	CON(C)C(=O)[C@H](C)CS
5	C[C@H](CS)C(=O)NCc1ccccc1
120	C[C@H](CS)C(=O)NCCS(C)(=O)=O
5	C[C@H](CS)C(=O)NCc1ccccc1O
> 200	CC(CS)C(=O)Nc1ccc(F)cc1 (stereo not drawn)
> 200	CC(CS)C(=O)Nc1cccc(F)c1 (stereo not drawn)
> 200	Cc1ccccc1CNC(=O)[C@H](C)CS
81	C[C@H](CS)C(=O)O
13	CSCCNC(=O)[C@H](C)CS
55	CONC(=O)[C@H](C)CS
48	CON(C)C(=O)[C@@H](C)CS
52	CC(CS)C(=O)Nc1ncc(Br)s1 (stereo not drawn)
> 200	CC(CS)C(=O)Nc1nccs1 (stereo not drawn)
20	CCCCNC(=O)C(C)CS (stereo not drawn)
53	C[C@@H](CS)C(=O)O
> 200	CC(CS)C(=O)Nc1ncc[nH]1 (stereo not drawn)
21	Cc1coc(NC(=O)C(C)CS)n1 (stereo not drawn)
> 200	COc1ccc(CONC(=O)C(C)CS)cc1 (stereo not drawn)
> 200	CC(CS)C(=O)NCc1ccc(F)cc1 (stereo not drawn)
56	CC(CS)C(=O)O (racemic)
> 200	CC(CS)C(=O)NCCc1cccs1 (stereo not drawn)
135	CC(CS)C(=O)Nc1ccccc1 (stereo not drawn)
> 200	C[C@H](CS)C(=O)NCc1ccc(O)cc1
1.5	C[C@@H](CS)C(=O)NCc1ccccc1
92	CONC(=O)[C@@H](C)CS
> 200	CC(CS)C(=O)NCc1ccco1 (stereo not drawn)
10.4	OCC(S)CS (stereo not drawn) [DIMERCAPROL]
> 200	CC(CS)C(=O)NCCc1ccccc1 (stereo not drawn)
